Patent US9775348B2, “Composition comprising a sesterterpene and use thereof as antibiotic and antifungal adjuvant” (RODE PHARMA S.R.L., priority 2012, dated 2017)

Columns and labels:
Format in all cases: cell-based
[1] = tested on: Aspergillus niger, ATCC 16404; assay: Fungal test, inhibition halo in Petri dish with central well; settings: tests with well, 25° C.
Description: (§1) A study about the efficacy of the composition of the present invention to some fungi was conducted. The compositions were tested according to the MIC method. The methodology being used is herein reported.
(§2) The tested fungi strains were as follows: i) Aspergillus niger, ATCC 16404; ii) Trichoderma viride, ATCC 28020; iii) Penicillium funiculosum ATCC 9644 and iv) Chaetomium globosum, ATCC 16021.
(§3) For each strain, time by time, a culture in liquid nutrient medium such as SABORAUD DEXEROSE AGAR was made.
(§4) Freshly-made subcultures were created, and incubated until obtaining an estimated density of […]. The estimate was obtained by spectrophotometric measurement of absorption at 530 nm.
(§5) Bacteriostatic tests: The tests were performed by placing fungal culture aliquots (set forth in the tables below) in Petri dishes with a central well (1 centimeter diameter) in which the product to be tested was poured. All the plates were incubated at 25° C. The incubation time for solutions A, B, C, D, E and F was 72 hours, while for products. M1, M2 and M3 the time was 30 hours.
(§6) The results are expressed as inhibition halo diameter being measured over each plate. […] Consequently, a 0 mm diameter denotes an undetectable halo. The described values indicate the average from the minimum and maximum values of halos for each test. Values are expressed in mm of inhibition.

[2] = tested on: Chaetomium globosum, ATCC 16021; assay: as above; settings: tests with well, 25° C.
Description: as §1, §2, §3, §4, §5, §6

[3] = tested on: Penicillium funiculosum ATCC 9644; assay: as above; settings: tests with well, 25° C.
Description: as §1, §2, §3, §4, §5, §6

[4] = tested on: Trichoderma viride, ATCC 28020; assay: as above; settings: tests with well, 25° C.
Description: as §1, §2, §3, §4, §5, §6

[5] = tested on: Escherichia coli ATCC 25922; assay: Bacteriostatic test, inhibition halo in Petri dish with central well; settings: 2 cc of a 0.7% solution equal to 35 mg, diameter does not include the 10 mm central well
Description: (§7) A study about the efficacy of a gascardic acid-based composition referred to as M3 was conducted against some publicly available pathogenic bacteria such as (1) Staphylococcus aureus—ATCC 25923 (190×10^6 UFC/ml) (2) Pseudomonas aeruginosa—ATCC 15442 (305×10^6 UFC/ml) and (3) Escherichia coli—ATCC 25922 (300×10^6 UFC/ml). The composition M3 was tested according to MIC method.
(§8) The method was carried out as follows. Time by time, a culture of the above-mentioned strains was prepared in a Tryptic soy Agar type growth medium. Freshly-made subcultures were prepared, and incubated until obtaining an estimated density of 1×10^6 cells per ml of culture. The assessment was obtained by spectrophotometric measurement of absorption at known wavelengths.
(§9) The bacteriostatic tests were performed by placing the bacterial culture in Petri dishes with a central well of 1 cm diameter, containing the 2 cc aliquot of composition M3. Then, the freshly-made subculture was plated over the surrounding medium. Next, the Petri dishes were placed in a thermostatic environment at 30° C. and examined after 24 and 48 ore.
(§10) The results are expressed as inhibition halo diameter measured over each Petri dish. […] Consequently, a zero mm (0 mm) diameter denotes an undetectable halo. The given average values are obtained by considering the minimum and maximum value of each halo.
(§11) According to the above-described MIC method, a test where the pathogenic bacteria (1) Staphylococcus aureus ATCC 25923 (2) Pseudomonas aeruginosa ATCC 15442 and (3) Escherichia coli ATCC 25922 were tested along using composition M5 and composition M5+M3 was conducted.

[6] = tested on: Pseudomonas aeruginosa ATCC 15442; assay: as above; settings: 2 cc of a 0.7% solution equal to 35 mg, diameter does not include the 10 mm central well
Description: as §7, §8, §9, §10, §11

[7] = tested on: Staphylococcus aureus ATCC 25923; assay: as above; settings: 2 cc of a 0.7% solution equal to 35 mg, diameter does not include the 10 mm central well
Description: as §7, §8, §9, §10, §11

[8] = tested on: fungi; assay: Fungal tests, overall conclusion versus fluconazole; settings: 0.07 mg versus 2 mg (about 1:28 ratio); alone or combined with each other
Description: as §1, §2, §5, §6

[9] = incubation 72 hours, 1 cc per plate
[10] = incubation 30 hours, 1 cc (0.07 mg of compound)

Row | Compound | mm of inhibition (inhibition halo diameter) [1, 9] | mm of inhibition (inhibition halo diameter) [2, 9] | mm of inhibition (inhibition halo diameter) [3, 9] | mm of inhibition (inhibition halo diameter) [4, 9] | mm of inhibition (inhibition halo diameter) [1, 10] | mm of inhibition (inhibition halo diameter) [2, 10] | mm of inhibition (inhibition halo diameter) [3, 10] | mm of inhibition (inhibition halo diameter) [4, 10] | Halo in mm (inhibition halo diameter) [5] | Halo in mm (inhibition halo diameter) [6] | Halo in mm (inhibition halo diameter) [7] | fungicidal activity compared with M4 (fluconazole) [8]
1 | OC(Cn1cncn1)(Cn1cncn1)c1ccc(F)cc1F [Test A, Fluconazole, reference compound] | 1 mm | 11-17 mm | 0 mm | 0 mm |  |  |  |  |  |  |  | 
2 | C=C(C)[C@@H]1CC[C@]2(C(=O)O)CC[C@]3(C)[C@H](CC[C@@H]4[C@@]5(C)CC[C@H](O)C(C)(C)[C@@H]5CC[C@]43C)[C@@H]12 [Test M1, Betulinic acid] |  |  |  |  | 15-16 mm | 22-26 mm | 12-18 (*) mm | 31-34 (*) mm |  |  |  | 
3 | Gascardic acid [Test M3] |  |  |  |  | 15-18 mm | 19-26 mm | 15-20 (*) mm | 16-27 mm | 6 mm | 6 mm | 8 mm | strong fungicidal activity than M4
4 | C[C@H]1C(=O)CC[C@@H]2[C@]1(C)CC[C@H]1[C@@]2(C)CC[C@@]2(C)[C@@H]3CC(C)(C)CC[C@]3(C)CC[C@]12C [Test M2, Fridelin] |  |  |  |  | 3-4 mm | 5-11 (*) mm | 1-1.5 mm | 2-6 mm |  |  |  | strong fungicidal activity than M4
